Tested on: normal, human-derived epidermal keratinocytes
Assay: EPIDERM Skin Model In Vitro Toxicity Testing System, dermal irritancy potential (ET-50 test)
Details: time at which percent viability equals 50%
Experimental: Applicants' jojobate carboxylate/jojoba alcohol/glycol formulation of Example I was evaluated by MatTek Corporation using an EPIDERM Skin Model In Vitro Toxicity Testing System.
The percentage of viable cells was then determined for each test sample using a spectrophotometric analysis at 570 nm. Thereafter, a semi-log plot of the percent viabilities, on the linear Y axis, versus the dosing times, on the log X axis. By interpolation, the time which the percent viability would equal 50%, i.e. the ET-50 time, was determined.

Row | Compound | ET-50 time
1 | CCCCCCCCCCCCOS(=O)(=O)[O-].[Na+] [Sodium Lauryl Sulfate] | less than 1 hours
2 | Triton X | 3.7 h

From patent publication US20070286839A1, “COMPOSITION COMPRISING JOJOBA CARBOXYLATES IN COMBINATION WITH JOJOBA ALCOHOL AND COSMETIC FORMULATION COMPRISING SAME” (priority 2006, published 2007)
